The assay has as its target DNA topoisomerase 2-alpha (Homo sapiens, UniProt P11388). The experiment in a line: ChEBML_1696318. The protocol:
Inhibition of recombinant human topoisomerase-2alpha expressed in Saccharomyces cerevisiae JEL1 harboring topoisomerase1 deletion mutant assessed as reduction in enzyme-mediated [gamma32P]ATP hydrolysis using relaxed pBR322 DNA as substrate after 8 mins

Molecules are shown by their SMILES.

Chain of DNA topoisomerase 2-alpha (P11388 whole entry): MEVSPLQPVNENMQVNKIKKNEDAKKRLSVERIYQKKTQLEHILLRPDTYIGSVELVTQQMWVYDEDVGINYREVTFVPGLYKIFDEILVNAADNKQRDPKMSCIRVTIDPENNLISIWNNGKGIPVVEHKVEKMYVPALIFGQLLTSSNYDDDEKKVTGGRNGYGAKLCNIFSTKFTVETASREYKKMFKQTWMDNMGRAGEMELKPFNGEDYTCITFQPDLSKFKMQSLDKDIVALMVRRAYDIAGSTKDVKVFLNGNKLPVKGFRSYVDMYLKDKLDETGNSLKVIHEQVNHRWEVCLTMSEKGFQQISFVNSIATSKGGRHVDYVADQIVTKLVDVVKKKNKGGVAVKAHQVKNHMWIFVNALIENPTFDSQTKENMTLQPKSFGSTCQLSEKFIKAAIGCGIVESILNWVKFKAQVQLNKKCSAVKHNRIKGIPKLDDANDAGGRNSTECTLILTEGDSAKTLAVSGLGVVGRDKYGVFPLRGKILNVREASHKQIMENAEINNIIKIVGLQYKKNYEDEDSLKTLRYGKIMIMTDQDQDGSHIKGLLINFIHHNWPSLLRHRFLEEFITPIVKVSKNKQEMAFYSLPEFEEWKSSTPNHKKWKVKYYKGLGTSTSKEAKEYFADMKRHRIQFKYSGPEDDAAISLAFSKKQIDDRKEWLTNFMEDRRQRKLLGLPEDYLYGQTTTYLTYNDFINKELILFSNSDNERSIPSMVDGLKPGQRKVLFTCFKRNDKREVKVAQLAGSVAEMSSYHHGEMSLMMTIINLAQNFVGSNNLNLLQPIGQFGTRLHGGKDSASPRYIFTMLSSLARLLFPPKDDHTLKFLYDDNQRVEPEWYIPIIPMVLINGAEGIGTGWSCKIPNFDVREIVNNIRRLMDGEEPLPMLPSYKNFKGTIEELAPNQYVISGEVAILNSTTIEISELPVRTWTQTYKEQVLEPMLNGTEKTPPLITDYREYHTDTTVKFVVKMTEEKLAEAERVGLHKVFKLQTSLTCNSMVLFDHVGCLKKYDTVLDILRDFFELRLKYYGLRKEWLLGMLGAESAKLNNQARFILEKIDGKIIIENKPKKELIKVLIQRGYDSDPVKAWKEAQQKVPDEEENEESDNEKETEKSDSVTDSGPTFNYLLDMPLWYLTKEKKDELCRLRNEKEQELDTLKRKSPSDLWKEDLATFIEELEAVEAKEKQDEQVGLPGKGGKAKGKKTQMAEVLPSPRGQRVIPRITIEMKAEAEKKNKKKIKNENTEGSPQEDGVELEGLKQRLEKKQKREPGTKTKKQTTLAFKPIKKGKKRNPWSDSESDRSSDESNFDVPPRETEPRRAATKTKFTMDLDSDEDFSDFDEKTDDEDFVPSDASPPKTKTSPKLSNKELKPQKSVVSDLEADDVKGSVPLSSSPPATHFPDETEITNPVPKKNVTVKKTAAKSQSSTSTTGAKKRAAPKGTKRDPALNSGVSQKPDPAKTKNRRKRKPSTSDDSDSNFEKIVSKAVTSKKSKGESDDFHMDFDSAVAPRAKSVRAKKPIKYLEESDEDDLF

Consider `NCCCCNCC(O)COc1cc(O)c2c(=O)c3ccccc3oc2c1` (stereo unspecified), for which the IC50 turned out to be 2.5 µM. In other words, the single-digit micromolar range.

In general, IC50 refers to the point on the concentration scale where inhibition reaches its midpoint. A lower IC50 goes with inhibition by little substance.

These data come from BindingDB's records for doi:10.1016/j.bmcl.2017.09.011 (Alma Mater Studiorum-University of Bologna, 2017).
